Molecular target: T1, T1R1 and T1R3 with G protein α-subunits (α15 and α16/Z chimeric protein) (Mus musculus, UniProt Q925D8+Q99PG6, I706N)
T1 construct: expressed in transfected cells; host or cells: 293 cells, RCB 1637 (human embryonic kidney)
T1 sequence (Q99PG6 20-842 L120P/N244D/D281A/N309Y/P311T/S314P/H418Y): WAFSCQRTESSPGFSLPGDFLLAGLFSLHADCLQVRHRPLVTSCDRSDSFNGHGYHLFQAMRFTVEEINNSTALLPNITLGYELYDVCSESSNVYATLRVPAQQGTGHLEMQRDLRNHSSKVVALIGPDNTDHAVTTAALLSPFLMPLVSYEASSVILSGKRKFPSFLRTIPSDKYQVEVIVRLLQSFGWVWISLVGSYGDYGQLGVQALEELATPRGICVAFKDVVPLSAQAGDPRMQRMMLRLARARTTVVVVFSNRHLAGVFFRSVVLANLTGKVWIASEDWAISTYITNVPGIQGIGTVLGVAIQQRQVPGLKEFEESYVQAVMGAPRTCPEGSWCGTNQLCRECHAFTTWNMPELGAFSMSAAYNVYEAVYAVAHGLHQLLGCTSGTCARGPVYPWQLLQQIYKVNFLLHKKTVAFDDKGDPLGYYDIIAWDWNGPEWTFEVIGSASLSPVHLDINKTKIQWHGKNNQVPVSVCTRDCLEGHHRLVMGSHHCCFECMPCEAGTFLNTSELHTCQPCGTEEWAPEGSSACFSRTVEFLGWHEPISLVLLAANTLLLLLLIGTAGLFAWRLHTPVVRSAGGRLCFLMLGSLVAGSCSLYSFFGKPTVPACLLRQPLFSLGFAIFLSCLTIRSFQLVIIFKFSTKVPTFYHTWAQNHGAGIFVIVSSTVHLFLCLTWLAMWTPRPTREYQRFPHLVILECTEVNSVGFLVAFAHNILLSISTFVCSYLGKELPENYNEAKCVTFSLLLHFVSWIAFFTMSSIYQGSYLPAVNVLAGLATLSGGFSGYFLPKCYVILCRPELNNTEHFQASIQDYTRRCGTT
T1 sequence (Q925D8 21-858 I706N): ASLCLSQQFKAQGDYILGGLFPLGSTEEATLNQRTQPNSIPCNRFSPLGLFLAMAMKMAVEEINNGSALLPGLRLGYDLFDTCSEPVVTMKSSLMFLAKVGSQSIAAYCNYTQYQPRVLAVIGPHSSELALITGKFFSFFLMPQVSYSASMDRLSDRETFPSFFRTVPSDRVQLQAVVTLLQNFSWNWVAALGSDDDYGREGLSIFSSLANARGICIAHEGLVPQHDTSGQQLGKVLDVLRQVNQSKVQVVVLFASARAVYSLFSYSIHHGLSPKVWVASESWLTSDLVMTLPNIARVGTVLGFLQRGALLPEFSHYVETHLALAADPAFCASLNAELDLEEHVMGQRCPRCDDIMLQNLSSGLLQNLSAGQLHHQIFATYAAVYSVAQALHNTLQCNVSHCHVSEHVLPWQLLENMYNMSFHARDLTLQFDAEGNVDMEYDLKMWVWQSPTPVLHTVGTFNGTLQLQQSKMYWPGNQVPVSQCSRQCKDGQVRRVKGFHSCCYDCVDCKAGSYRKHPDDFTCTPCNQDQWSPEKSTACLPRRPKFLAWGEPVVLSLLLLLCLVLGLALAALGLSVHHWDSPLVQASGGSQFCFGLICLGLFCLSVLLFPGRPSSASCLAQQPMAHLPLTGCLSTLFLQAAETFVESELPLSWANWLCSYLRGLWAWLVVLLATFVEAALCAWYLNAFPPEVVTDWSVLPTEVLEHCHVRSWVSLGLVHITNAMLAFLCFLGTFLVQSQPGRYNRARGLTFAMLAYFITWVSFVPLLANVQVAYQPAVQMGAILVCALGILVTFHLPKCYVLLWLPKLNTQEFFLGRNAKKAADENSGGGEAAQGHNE
Test: Intracellular calcium ion assay, 293 cells coexpressing G protein α-subunits, T1R1 and T1R3
Assay type: cell-based
Details: 293 cells: T1R1 + T1R3 + G protein α-subunits; 0.67 ml of 1 M saccharide solution added to 2 ml cell suspension; FLUO-4 AM
Description: The coexpression vector for the G protein α-subunit α15 and the G protein α16/Z chimeric protein (hereinafter designated as “G protein α-subunits”) obtained in Example 1-3 was gene transferred to 293 cells, RCB 1637, a human embryonic kidney cell line, available from the Riken Bioresource Center, Ibaraki, Japan, by conventional lipofection. The gene transferred cells were suspended in Dulbecco's Modified Eagle's Medium (D-MEM) supplemented with 1 mg/L of “PUROMYCIN”, a trade mane of puromycin commercialized by Edge Biosystems, MD, USA, and 10% (v/v) of fetal calf serum to give a cell density of 2×10^6 cells/ml and cultured in a plastic petri dish for cell culture. […]
The captioned reactivity test was conducted according to a conventional intracellular calcium ion assay: 293 Cells prepared in Example 3, capable of coexpressing the G protein α-subunits and the sweet taste receptor(s), were cultured in a plastic petri dish for cell culture until reaching its confluent phase. […] Two milliliters of the resultant cell suspension was injected into a glass cuvette, commercialized by Hitachi, Ltd., Tokyo, Japan, and analyzed on “HITACHI 650-40”, a fluorescence spectrophotometer commercialized by Hitachi, Ltd., Tokyo, Japan. […]

Row | Influx of calcium ion | SMILES
1 | Negative | OC[C@H]1O[C@@](CO)(O[C@H]2O[C@H](CO)[C@@H](O)[C@H](O)[C@H]2O)[C@@H](O)[C@@H]1O [Sucrose, reference compound]
2 | Positive | OC[C@H]1O[C@H](O[C@H]2O[C@H](CO)[C@@H](O)[C@H](O)[C@H]2O)[C@H](O)[C@@H](O)[C@@H]1O [Trehalose]
